Experimental data published in patent US8557737B2, “Methods of altering poppy characteristics” (priority 2005, dated 2013).

What was measured:
[1] = system: poppy crops; assay: Example 16: field trial, metsulfuron-methyl, mesosulfuron-methyl and triasulfuron at row cover and ground cover/early run-up, morphine crop; type: in vivo, Papaver somniferum; details: Trt 2: COMPOUND 1 120 MG/HA + PULSE .2% V/V at RC and GC/ERU
Procedure: (§1) All trials were conducted on poppy crops. Seed was treated with Thiram (5.6 g of Thiram 800/kg seed) and Apron (4 g/kg) and sown at a rate of approximately 750 g/ha. Fertilisers were applied at sowing. Most commonly, either 50:50 lime:superphosphate/triple superphosphate at 125 kg/ha, or lime:superphosphate at 250 kg/ha, were mixed with seed and drilled at a depth of 15 mm. In the same operation, NPK (nitrogen:phosphorus:potassium), at various rates, was banded 75 mm below the seed, unless otherwise stated. All crops were subjected to herbicide sprays for weed control, fungicide sprays for disease control, insecticide sprays if appropriate and were irrigated as required.
(§2) All spray applications were made with a precision sprayer, using Silvan Lurmark flat-fan, low-drift nozzles (LD110-0015). Spray equipment was calibrated to deliver 153 L water/ha.
(§3) At harvest, a 2 m×4 m quadrat was placed in each plot (3 m×6 m, unless otherwise stated) and capsules hand-picked from this area. Capsules were broken up, seed and capsule material separated and weighed. Capsule moisture readings were taken with a moisture meter. Alkaloid yield data were calculated on Pesticide Research Manager (version 5 for Windows) using the formulae below. Briefly, capsule weight was adjusted for moisture to a dry weight, 5% of seed weight was added to this (this amount of capsule material regularly occurs in seed samples after processing) to give a capsule weight per plot. Seed weight was adjusted to 95% of crude weight. Straw weights were determined by multiplying dry capsule weight by 1.3 (estimated amount of stem material in a commercial harvest) and adjusted to 11% moisture. When Lontrel was applied to crops exact capsule and seed weight data were entered. Analyses of variance and a Multiple Range Test were performed on data using Pesticide Research Manager.
Trial to evaluate applications of metsulfuron-methyl (Compound 1), mesosulfuron-methyl (Compound 2) and triasulfuron (Compound 3), in a morphine crop. Treatment sprays were applied to crop at row cover and ground cover/early run-up, respectively. Plant heights were assessed 5 weeks after last application and lodging was assessed at capsule harvest.

[2] = system: poppy crops; assay: Example 13: field trial, metsulfuron-methyl, Lontrel and metsulfuron-methyl+Lontrel, morphine crop; type: in vivo, Papaver somniferum; details: Trt 3: COMPOUND 1 120 MG/HA + PULSE .2% V/V at RC, ERU and LRU
Procedure: as §1, §2
as §3, with “Manager. Significant differences (P=0.05) between treatments are denoted by different lower case letters adjacent to treatment means in the tables of results.” for “Manager.”
Trial to evaluate applications of metsulfuron-methyl (Compound 1), Lontrel and metsulfuron-methyl+Lontrel, in a morphine crop. Treatment sprays were applied to crop at row cover, early run-up and late run-up. Plant heights were measured at green capsule stage. Lodging was assessed at harvest.

Structure (SMILES): COC(=O)c1ccccc1S(=O)(=O)NC(=O)Nc1nc(C)nc(OC)n1 [Compound 1, metsulfuron-methyl]
- CAPS/SEED RATIO [1]: 1.740 a
- CROP WEIGHT [1]: 2.46 c t/ha
- MORPHINE [1]: 37.76 bc kg/ha
- SEED [1]: 698 d kg/ha
- STRAW [1]: 1749 bc kg/ha
- STRAW MORPHINE [1]: 2.15 ab %
- PLANT HEIGHT ([1]; 5 weeks after last application): 90.0 c cm
- CAPS/SEED RATIO [2]: 3.431 a
- CROP WEIGHT [2]: 3.11 b t/ha
- MORPHINE [2]: 50.81 a kg/ha
- SEED [2]: 582 c kg/ha
- STRAW [2]: 2530 a kg/ha
- STRAW MORPHINE [2]: 2.01 a %
- LODGING ([2]; assessed at harvest): 2.2 b %
- HEIGHT ([2]; height at green capsule stage): 95.8 b cm
